According to patent US20230105212A1, “BIPHENYL DERIVATIVE INHIBITOR, PREPARATION METHOD THEREFOR AND USE THEREOF” (SHANGHAI HANSOH BIOMEDICAL CO., LTD., priority 2020, published 2023):

Key:
[1] = biological target: T1, human PD-1/PD-L1 binding (Homo sapiens, UniProt Q9NZQ7); experiment: Inhibition of human PD-1/PD-L1 binding (TR-FRET/HTRF); settings: TR-FRET, PD-L1-His and PD-1-Fc; read-out: PD-1/PD-L1 binding IC50
T1 construct: PD-L1-His protein (19 to 238 amino acids) (Abcam #ab167713); purchased Abcam (PD-L1-His); R&D (PD-1-Fc) ab167713; 1086-PD
Source text: Test Embodiment 1: Test of Inhibitory Effect of the Compounds of the Present Disclosure on Human PD-1/PD-L1 Binding
Experimental purpose: The purpose of this test embodiment was to measure the inhibitory activity of the compounds on human PD-1/PD-L1 binding.
Experimental reagents: Binding Domain diluent buffer was purchased from Cisbio Company, Cat. No.: 62DLBDDF; MAb Anti-6HIS Eu cryptate Gold was purchased from Cisbio Company with the article number of 61HI2KLA; PAb Anti Human IgG-XL665 was purchased from Cisbio Company with the article number of 61HFCXLB; PD-L1-His protein was purchased from Abcam Company with the article number of ab167713; PD-1-Fc protein was purchased from R&D Company with the article number of 1086-PD; Detection buffer was purchased from Cisbio Company with the article number of 62SDBRDD; 384-well plate was purchased from PerkinElmer Company with the article number of 6007290.
Experimental method: In order to test the inhibitory activity of the compounds on human PD-1/PD-L1 binding, the method of time-resolved fluorescence resonance energy transfer (TR-FRET) was used in this experiment to test the inhibition of the compounds on human PD-1/PD-L1 binding, and the half inhibitory concentration IC50 of inhibitory activity of the compounds on human PD-1/PD-L1 binding was obtained.
This experiment was performed in a 384-well plate with a total reaction volume of 20 μL. Compounds were diluted to different concentrations (10 μM or 1 μM starting, 3-fold dilution, 11 doses) using assay buffer Binding Domain diluent buffer (Cisbio #62DLBDDF), then PD-L1-His protein (19 to 238 amino acids) (Abcam #ab167713) was diluted to 10 nM with assay buffer, and PD-1-Fc protein (25 to 167 amino acids) (R&D #1086-PD) was diluted to 20 nM with assay buffer; the compound, PD-L1 protein and PD-1 protein were added to a 384-well plate respectively, and the total volume was 10 μL, then centrifuged at 1000 rpm for 1 minute to mix well, and incubated for 60 minutes at room temperature. Then 10 μL of a mixed solution of MAb Anti-6HIS Eu cryptate Gold (Cisbio #61HI2KLA) and PAb Anti Human IgG-XL665 (Cisbio #61HFCXLB) diluted by HTRF Detection buffer was added to each well, and centrifuged at 1000 rpm for 1 minute to mix well. The reaction was carried out at room temperature for 3 hours or at 4° C. overnight, then a microplate reader (BioTek Synergy H1) was put into for reading; the excitation wavelength was 340 nm, and the emission wavelengths were 620 nm and 665 nm.
The ratio of fluorescence readings at 620 nm and 665 nm (665 nm/620 nm) was calculated, and the inhibition rate was calculated.

[2] = biological target: T2, PD-L1 protein on the surface of MC38-hPDL1 tumor cells (Homo sapiens, UniProt Q9NZQ7); experiment: Induction of endocytosis of PD-L1 on the surface of tumor cells (flow cytometry); assay type: cell-based; settings: 16 hours incubation; for Emax: MC38-hPDL1 cells, read-out: MC38 maximum endocytosis rate; for IC50: inducing endocytosis of PD-L1, MC38-hPDL1 cells, read-out: MC38 IC50
T2 construct: expressed in transfected cells; host or cells: MC38-hPDL1 (mouse colon cancer cells)
Source text: Test Embodiment 2. Test of the Activity of Compounds of the Present Disclosure on Inducing the Endocytosis of PD-L1 Protein on the Surface of Tumor Cells
Experimental purpose: The purpose of this test embodiment was to test the activity of the compound on inducing the endocytosis of PD-L1 on the surface of tumor cells.
Experimental method: In order to test the activity of the compound on inducing the endocytosis of PD-L1, in this experiment, the activity of the compound on inducing the endocytosis of PD-L1 was tested by detecting the change degree of PD-L1 on the tumor cell surface with fluorescently labeled anti-PD-L1 antibody, and the IC50 of activity of the compound on inducing the endocytosis of PD-L1 was obtained.
The mouse colon cancer cells MC38-hPDL1 with high expression of hPD-L1 were collected, and adjusted to a suitable density and plated in a 24-well plate, and placed in a 37° C., 5% CO2 incubator to adhere overnight. Compounds were prepared into different concentrations by medium and added to a 24-well plate, and a vehicle control well was set up. After the cells were incubated in a 37° C., 5% CO2 incubator for 16 hours, the 24-well plate was taken out, and MC38-hPDL1 cells with different treatments in the plate were collected. After the cells were washed once with FACS buffer (PBS containing 0.5% BSA), and the cells were prepared to an appropriate density with FACS buffer. PE Mouse Anti-Human CD274 antibody (BD Pharmingen #557924) was added, and the cells were shaken at room temperature and incubated for 30 minutes without light, then the cells were washed twice with FACS buffer, resuspended in 100 μL of PBS, and a flow cytometer was used to detect the fluorescent signal on the cell surface, and the isotype control was set as a negative control.
The endocytosis rate of the compounds was calculated from the fluorescence signals of different treatment groups, and the compound concentration and endocytosis rate were fitted by nonlinear regression using GraphPad Prism software, and IC50 values were obtained, as shown in Table 2.

T2 sequence (Q9NZQ7 19-290): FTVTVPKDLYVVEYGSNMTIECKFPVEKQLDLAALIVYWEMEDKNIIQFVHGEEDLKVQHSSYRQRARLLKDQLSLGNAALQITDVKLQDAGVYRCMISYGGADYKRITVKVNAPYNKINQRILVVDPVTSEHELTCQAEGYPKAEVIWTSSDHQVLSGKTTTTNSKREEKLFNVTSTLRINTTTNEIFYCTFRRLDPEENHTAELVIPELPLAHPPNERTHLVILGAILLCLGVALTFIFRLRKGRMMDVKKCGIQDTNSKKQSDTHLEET
T1 sequence (Q9NZQ7 19-238): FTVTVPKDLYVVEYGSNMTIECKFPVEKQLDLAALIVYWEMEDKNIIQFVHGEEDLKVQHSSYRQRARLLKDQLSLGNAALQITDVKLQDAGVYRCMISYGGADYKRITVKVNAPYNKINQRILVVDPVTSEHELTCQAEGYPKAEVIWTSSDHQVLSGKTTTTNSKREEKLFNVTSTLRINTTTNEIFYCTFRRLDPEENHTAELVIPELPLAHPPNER

Compound	IC50 [1] [nM]	Emax [2] [%]	IC50 [2] [nM]
CCN1CCc2c(nc(C(=O)Nc3cccc(-c4cccc(NC(=O)c5cc(OC)c(CNc6ccnc(OC)c6)cn5)c4Cl)c3Cl)n2C)C1 [Embodiment 82, N-(2,2′-Dichloro-3′-(4-methoxy-5-(((2-methoxypyridin-4-yl)amino)methyl)picolinamido)-[1,1′-biphenyl]-3-yl)-5-ethyl-1-methyl-4,5,6,7-tetrahydro-1H-imidazo[4,5-c]pyridine-2-carboxamide]	3.9	85	12
COc1nc(-c2cccc(-c3cccc(NC(=O)c4nc5c(n4C)CCN(C)C5)c3Cl)c2Cl)ccc1CN1CC2CC(C1)N2C(=O)CC#N [Embodiment 208, N-(2,2′-Dichloro-3′-(5-((6-(2-cyanoacetyl)-3,6-diazabicyclo[3.1.1]heptan-3-yl)methyl)-6-methoxypyridin-2-yl)-[1,1′-biphenyl]-3-yl)-1,5-dimethyl-4,5,6,7-tetrahydro-1H-imidazo[4,5-c]pyridine-2-carboxamide]	9	81	
COc1cc(C(=O)Nc2cccc(-c3cccc(NC(=O)c4nc5c(n4C)CCN(C)C5)c3Cl)c2C)ncc1CNCCF [Embodiment 18, N-(2-Chloro-3′-(5-(((2-fluoroethyl)amino)methyl)-4-methoxypicolinamido)-2′-methyl-[1,1′-biphenyl]-3-yl)-1,5-dimethyl-4,5,6,7-tetrahydro-1H-imidazo[4,5-c]pyridine-2-carboxamide]	2.4	91	1.5
COc1cc(C(=O)Nc2cccc(-c3cccc(NC(=O)c4nc5c(n4C)CCN(C)C5)c3Cl)c2C)ncc1CNc1cc(C)ccn1 [Embodiment 11, N-(2-Chloro-3′-(4-methoxy-5-(((4-methylpyridin-2-yl)amino)methyl)picolinamido)-2′-methyl-[1,1′-biphenyl]-3-yl)-1,5-dimethyl-4,5,6,7-tetrahydro-1H-imidazo[4,5-c]pyridine-2-carboxamide]	5.1	85	8.1
C=CCNCc1cnc(C(=O)Nc2cccc(-c3cccc(NC(=O)c4nc5c(n4C)CCN(C)C5)c3Cl)c2C)cc1OC [Embodiment 41, N-(3′-(5-((Allylamino)methyl)-4-methoxypicolinamido)-2-chloro-2′-methyl-[1,1′-biphenyl]-3-yl)-1,5-dimethyl-4,5,6,7-tetrahydro-1H-imidazo[4,5-c]pyridine-2-carboxamide]	4	90	1.9
COc1cc(-c2cccc(-c3cccc(NC(=O)c4nc5c(n4C)CCN(C)C5)c3Cl)c2C)ncc1CNC1CCOCC1 [Embodiment 59, N-(2-Chloro-3′-(4-methoxy-5-(((tetrahydro-2H-pyran-4-yl)amino)methyl)pyridin-2-yl)-2′-methyl-[1,1′-biphenyl]-3-yl)-1,5-dimethyl-4,5,6,7-tetrahydro-1H-imidazo[4,5-c]pyridine-2-carboxamide]	4.7	85	9.6
COc1cc(C(=O)Nc2cccc(-c3cccc(NC(=O)c4nc5c(n4C)CCN(C)C5)c3Cl)c2C)ncc1CN[C@H]1CCCNC1=O [Embodiment 98, (S)—N-(2-Chloro-3′-(4-methoxy-5-(((2-carbonylpiperidin-3-yl)amino)methyl)picolinamido)-2′-methyl-[1,1′-biphenyl]-3-yl)-1,5-dimethyl-4,5,6,7-tetrahydro-1H-imidazo[4,5-c]pyridine-2-carboxamide]	6.3	93	5.6
COc1nc(C(=O)Nc2cccc(-c3cccc(NC(=O)c4nc5c(n4C)CCN(C)C5)c3Cl)c2C)ccc1CN[C@@H](C)CO [Embodiment 43, (S)—N-(2-Chloro-3′-(5-(((1-hydroxypropan-2-yl)amino)methyl)-6-methoxypicolinamido)-2′-methyl-[1,1′-biphenyl]-3-yl)-1,5-dimethyl-4,5,6,7-tetrahydro-1H-imidazo[4,5-c]pyridine-2-carboxamide]	4.1		
